Experimental data from PubChem BioAssay (NCI).
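Step 1: Grow cells in 96-well plates. Step 2: Expose to compound for 48 hours at 5 concentrations. Step 3: Interpolate endpoints linearly; if unreached, use highest concentration. The concentration for 50% growth inhibition is given as GI50. TGI is the concentration that stops growth completely.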

Key:
Experiment in all cases: growth of human tumour cells (NCI), 48 h
[1] = tested on: DU-145 prostate
[2] = tested on: MALME-3M melanoma
[3] = tested on: KM12 colon
[4] = tested on: UACC-257 melanoma
[5] = tested on: HCT-15 colon
[6] = tested on: NCI-H23 lung
[7] = tested on: IGROV1 ovarian
[8] = tested on: COLO 205 colon
[9] = tested on: MDA-N
[10] = tested on: SK-MEL-28 melanoma
[11] = tested on: OVCAR-4 ovarian
[12] = tested on: SNB-19 CNS
[13] = tested on: SK-OV-3 ovarian
[14] = tested on: HOP-62 NSCLC
[15] = tested on: SF-539 CNS
[16] = tested on: SF-295 CNS

SMILES: Cc1ccc(C2SC(N)=Nc3c2c(C)nn3C(=O)c2ccccc2O)cc1 (stereo not drawn)
- TGI [1]: > 10 µM
- TGI [2]: > 10 µM
- TGI [3]: > 10 µM
- TGI [4]: > 10 µM
- TGI [5]: > 10 µM
- TGI [6]: > 10 µM
- TGI [7]: > 10 µM
- TGI [8]: > 10 µM
- TGI [9]: > 10 µM
- TGI [10]: > 10 µM
- TGI [11]: > 10 µM
- TGI [12]: > 10 µM
- TGI [13]: > 10 µM
- TGI [14]: > 10 µM
- TGI [15]: > 10 µM

SMILES: CN1CCCOC(c2ccc([N+](=O)[O-])cc2)O1 (stereo not drawn)
- TGI [1]: > 100 µM
- TGI [2]: > 100 µM
- TGI [3]: > 100 µM
- TGI [4]: > 100 µM
- TGI [5]: > 100 µM
- TGI [6]: > 100 µM
- TGI [7]: > 100 µM
- TGI [8]: > 100 µM
- TGI [16]: > 100 µM
- TGI [9]: > 100 µM
- TGI [10]: > 100 µM
- TGI [11]: > 100 µM
- TGI [12]: > 100 µM
- TGI [13]: > 100 µM
- TGI [14]: > 100 µM
- TGI [15]: > 100 µM

SMILES: Cc1c(F)c(N)c2c(=O)cc(-c3ccc(N)c(F)c3)oc2c1F
- TGI [1]: > 100 µM
- TGI [2]: > 91.4 µM
- TGI [3]: > 100 µM
- TGI [4]: > 100 µM
- TGI [5]: > 100 µM
- TGI [6]: 68.4 µM
- TGI [7]: 25.2 µM
- TGI [8]: > 100 µM
- TGI [16]: 43.2 µM
- TGI [9]: > 89 µM
- TGI [10]: > 95.2 µM
- TGI [11]: 48.8 µM
- TGI [12]: 46.4 µM
- TGI [13]: 38.1 µM
- TGI [14]: 46.8 µM
- TGI [15]: 32.3 µM

SMILES: O=C(NNCc1ccco1)c1cc2ccccc2[nH]1
- TGI [1]: > 100 µM
- TGI [2]: > 100 µM
- TGI [3]: > 100 µM
- TGI [4]: > 100 µM
- TGI [5]: > 100 µM
- TGI [6]: > 100 µM
- TGI [7]: > 100 µM
- TGI [8]: > 100 µM
- TGI [16]: > 100 µM
- TGI [9]: > 100 µM
- TGI [10]: > 100 µM
- TGI [11]: > 71.8 µM
- TGI [12]: > 100 µM
- TGI [13]: > 100 µM
- TGI [14]: > 100 µM
- TGI [15]: > 84.4 µM

SMILES: COC(=O)c1c2c(cc3c1CC1(Cc4ccc(C(C)=O)cc4C1)C3)CCC2 (stereo not drawn)
- TGI [1]: > 100 µM
- TGI [2]: 61.9 µM
- TGI [3]: > 100 µM
- TGI [4]: > 100 µM
- TGI [5]: > 100 µM
- TGI [6]: > 100 µM
- TGI [7]: > 100 µM
- TGI [8]: > 100 µM
- TGI [16]: > 100 µM
- TGI [9]: 28.5 µM
- TGI [10]: > 100 µM
- TGI [11]: > 100 µM
- TGI [13]: > 100 µM
- TGI [14]: > 100 µM
- TGI [15]: > 100 µM

SMILES: Nc1ccc(S(=O)(=O)Nc2ccc(Nc3c4ccccc4nc4ccccc34)cc2)cc1
- TGI [1]: 0.0188 µM
- TGI [2]: 10.8 µM
- TGI [3]: 4.59 µM
- TGI [4]: 20.2 µM
- TGI [5]: 17.7 µM
- TGI [6]: 0.732 µM
- TGI [7]: 19.7 µM
- TGI [8]: 14.9 µM
- TGI [16]: 1.03 µM
- TGI [9]: 22.8 µM
- TGI [10]: 20.8 µM
- TGI [11]: 17.1 µM
- TGI [12]: 9.54 µM
- TGI [13]: 0.501 µM
- TGI [14]: 0.0805 µM
- TGI [15]: 0.362 µM

SMILES: Cc1ccc(C(=O)Nc2ccc(CP(=O)(O)O)cc2CP(=O)(O)O)cc1NC(=O)c1cccc(NC(=O)Nc2cccc(C(=O)Nc3cc(C(=O)Nc4ccc(CP(=O)(O)O)cc4CP(=O)(O)O)ccc3C)c2)c1
- TGI [1]: > 100 µM
- TGI [2]: > 100 µM
- TGI [3]: > 100 µM
- TGI [4]: > 100 µM
- TGI [5]: > 100 µM
- TGI [6]: > 100 µM
- TGI [7]: > 100 µM
- TGI [8]: > 100 µM
- TGI [16]: > 100 µM
- TGI [9]: > 100 µM
- TGI [10]: > 100 µM
- TGI [11]: > 100 µM
- TGI [13]: > 100 µM
- TGI [14]: > 100 µM
- TGI [15]: > 100 µM

SMILES: COc1cc(/C=C2\C(=O)N(c3ccccc3Cl)C(c3ccccc3)S2(=O)=O)cc(OC)c1OC (stereo not drawn)
- TGI [1]: > 100 µM
- TGI [2]: 89.3 µM
- TGI [3]: 83.5 µM
- TGI [4]: > 100 µM
- TGI [5]: > 100 µM
- TGI [6]: > 100 µM
- TGI [8]: > 100 µM
- TGI [16]: > 100 µM
- TGI [9]: 42.5 µM
- TGI [10]: > 100 µM
- TGI [11]: > 100 µM
- TGI [12]: > 100 µM
- TGI [13]: > 100 µM
- TGI [14]: > 100 µM
- TGI [15]: 38.3 µM

SMILES: O=C(Nc1ccccc1)n1[nH]c(=O)n(-c2ccccc2)c1=O
- TGI [1]: > 100 µM
- TGI [2]: > 100 µM
- TGI [3]: > 100 µM
- TGI [4]: > 100 µM
- TGI [5]: > 100 µM
- TGI [6]: > 100 µM
- TGI [8]: > 100 µM
- TGI [16]: > 100 µM
- TGI [9]: > 100 µM
- TGI [10]: > 100 µM
- TGI [11]: > 100 µM
- TGI [12]: > 100 µM
- TGI [13]: > 100 µM
- TGI [15]: > 100 µM

SMILES: Cc1ccc(C2=C(C#N)C(=O)N3CCN=C3S2)cc1
- TGI [1]: > 100 µM
- TGI [2]: > 100 µM
- TGI [3]: > 100 µM
- TGI [4]: > 100 µM
- TGI [5]: > 100 µM
- TGI [6]: > 100 µM
- TGI [7]: > 100 µM
- TGI [8]: > 100 µM
- TGI [16]: > 100 µM
- TGI [9]: > 100 µM
- TGI [10]: > 100 µM
- TGI [11]: > 100 µM
- TGI [12]: > 100 µM
- TGI [13]: > 100 µM
- TGI [15]: > 100 µM

SMILES: CC1(c2cccc(Cl)c2)CC(c2cccc(Cl)c2)=C(C#N)C(=C(C#N)C#N)N1 (stereo not drawn)
- TGI [1]: 29.3 µM
- TGI [2]: 35.2 µM
- TGI [3]: 39 µM
- TGI [4]: 42 µM
- TGI [5]: 33.8 µM
- TGI [6]: 39 µM
- TGI [7]: 31.8 µM
- TGI [8]: 29.9 µM
- TGI [16]: 33.4 µM
- TGI [9]: 39.7 µM
- TGI [10]: 74 µM
- TGI [11]: 32.6 µM
- TGI [12]: 39.9 µM
- TGI [13]: 32.8 µM
- TGI [14]: 41.3 µM
- TGI [15]: 37.2 µM

SMILES: N#Cc1cc(-c2nc3c(F)cccc3s2)ccc1N
- TGI [1]: > 100 µM
- TGI [2]: > 100 µM
- TGI [3]: > 100 µM
- TGI [4]: > 100 µM
- TGI [5]: > 100 µM
- TGI [6]: > 100 µM
- TGI [7]: > 100 µM
- TGI [8]: > 100 µM
- TGI [16]: > 100 µM
- TGI [9]: > 100 µM
- TGI [11]: > 100 µM
- TGI [12]: > 100 µM
- TGI [13]: > 100 µM
- TGI [14]: > 100 µM
- TGI [15]: > 100 µM

SMILES: CC1(C)OC(CP(c2ccccc2)c2ccccc2)C(CP(c2ccccc2)c2ccccc2)O1 (stereo not drawn)
- TGI [1]: > 55.5 µM
- TGI [2]: 41.1 µM
- TGI [3]: > 38.1 µM
- TGI [4]: > 100 µM
- TGI [5]: > 100 µM
- TGI [6]: > 22.5 µM
- TGI [7]: > 100 µM
- TGI [8]: 2.75 µM
- TGI [16]: > 100 µM
- TGI [9]: > 28.1 µM
- TGI [10]: > 100 µM
- TGI [11]: > 87.3 µM
- TGI [12]: > 100 µM
- TGI [13]: > 100 µM
- GI50 [14]: 0.56 µM
- TGI [14]: > 100 µM
- TGI [15]: > 100 µM

SMILES: Cc1cc2sc(C)[n+](CCCOS(=O)(=O)[O-])c2cc1C
- TGI [1]: > 100 µM
- TGI [2]: > 100 µM
- TGI [3]: > 100 µM
- TGI [4]: > 100 µM
- TGI [5]: > 100 µM
- TGI [6]: > 100 µM
- TGI [7]: > 100 µM
- TGI [8]: > 100 µM
- TGI [16]: > 100 µM
- TGI [9]: > 100 µM
- TGI [10]: > 100 µM
- TGI [11]: > 100 µM
- TGI [12]: > 100 µM
- TGI [13]: > 100 µM
- TGI [14]: > 100 µM
- TGI [15]: > 100 µM

SMILES: Cc1ccc(C)n1-c1ccccc1C1C=CN(C(=O)OC(C)(C)C)C=C1
- TGI [1]: > 100 µM
- TGI [2]: 47.8 µM
- TGI [3]: 31.2 µM
- TGI [4]: > 100 µM
- TGI [5]: 45.7 µM
- TGI [6]: > 100 µM
- TGI [7]: > 100 µM
- TGI [8]: 32.4 µM
- TGI [16]: > 100 µM
- TGI [9]: > 100 µM
- TGI [10]: > 100 µM
- TGI [11]: > 100 µM
- TGI [12]: > 100 µM
- TGI [13]: > 100 µM
- TGI [14]: > 100 µM
- TGI [15]: > 100 µM
